Source: article PMC10485003, “Antibiotic hyper-resistance in a class I aminoacyl-tRNA synthetase with altered active site signature motif” (Nature Communications, 2023)
Values joined by “and” are separate entries in the source; they are usually repeats but may differ in a detail not shown here. Equal values may be shown once.

Target: T1, mut-GVHH PmIleRS2 (Priestia megaterium, UniProt A0A0B6AVD3, G56H/H54G)
T1 sequence (A0A0B6AVD3 1-1032 H54G/G56H): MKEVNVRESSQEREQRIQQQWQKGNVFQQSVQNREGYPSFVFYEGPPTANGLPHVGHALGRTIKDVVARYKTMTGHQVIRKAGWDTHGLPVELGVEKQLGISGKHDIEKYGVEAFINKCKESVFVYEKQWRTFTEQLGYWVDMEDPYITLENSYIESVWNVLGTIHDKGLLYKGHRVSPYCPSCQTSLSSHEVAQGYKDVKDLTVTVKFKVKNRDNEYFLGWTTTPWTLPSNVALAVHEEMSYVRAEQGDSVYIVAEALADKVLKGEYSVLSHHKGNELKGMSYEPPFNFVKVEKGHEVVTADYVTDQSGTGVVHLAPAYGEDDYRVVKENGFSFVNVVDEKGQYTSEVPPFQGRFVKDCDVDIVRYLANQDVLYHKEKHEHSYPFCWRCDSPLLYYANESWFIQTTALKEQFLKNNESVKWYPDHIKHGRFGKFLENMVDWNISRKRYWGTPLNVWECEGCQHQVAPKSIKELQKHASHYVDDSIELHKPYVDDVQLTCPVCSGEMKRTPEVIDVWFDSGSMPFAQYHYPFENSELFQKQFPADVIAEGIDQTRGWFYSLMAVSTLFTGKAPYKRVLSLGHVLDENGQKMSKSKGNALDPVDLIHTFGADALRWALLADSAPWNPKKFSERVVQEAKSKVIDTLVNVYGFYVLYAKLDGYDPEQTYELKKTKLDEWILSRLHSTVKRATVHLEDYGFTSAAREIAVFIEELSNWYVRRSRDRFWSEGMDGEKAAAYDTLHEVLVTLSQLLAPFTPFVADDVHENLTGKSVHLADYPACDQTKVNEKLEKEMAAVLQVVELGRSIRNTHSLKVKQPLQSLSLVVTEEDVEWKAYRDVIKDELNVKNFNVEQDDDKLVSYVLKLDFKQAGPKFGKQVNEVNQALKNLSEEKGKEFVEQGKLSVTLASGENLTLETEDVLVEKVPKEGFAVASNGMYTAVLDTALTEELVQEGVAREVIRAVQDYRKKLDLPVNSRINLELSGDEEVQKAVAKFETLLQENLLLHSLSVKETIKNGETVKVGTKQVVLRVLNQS
Test: ATP-PPi exchange assay, mupirocin inhibition of amino acid activation
Assay type: biochemical, Priestia (Bacillus) megaterium
Experimental: L-Ile and ATP concentrations ranged from 1/10 KM to 10 KM values. When measuring the KI towards one of the substrates, the other was held in saturation (concentrations at least 10 KM). The aliquots of the reaction mixture (1–2.5 μl) were quenched in 2 volumes of 500 mM NaOAc pH = 4.5, 0.1% SDS, and formed ^32P-ATP was separated from the remaining ^32P-PPi by thin-layer chromatography on Polygram CEL 300 PEI UV254 TLC plates (Macherey-Nagel, cat: 801063) using 750 mM KH2PO4 pH=3.5, 4 M urea buffer. Visualization and quantification of the signals was performed using a Typhoon Phosphoimager 5 (General Electric) and accompanying ImageQuant™ TL software (SV: 10.2). The kinetic constants were determined using a global fit option of the competitive inhibition model of GraphPad Prism 6 software (SV: 6.01). All experiments were performed in triplicates. The kcat was determined by dividing the maximal velocity, VM, with the used enzyme concentration. […]
variable substrate (ATP or Ile) was varied in the range of 0.1 KM to 10 KM. The other substrate (Ile or ATP) was kept in excess at 5 to 10 KM. Data were globally fitted to the competitive inhibition model using GraphPad prism 6.01 for Windows software. The values represent the average value ± SD of three independent experiments. Source data are provided as a Source Data file.

Q: Which results are given for C/C(=C\C(=O)OCCCCCCCCC(=O)O)C[C@@H]1OC[C@H](C[C@@H]2O[C@H]2[C@@H](C)[C@H](C)O)[C@@H](O)[C@H]1O [mupirocin]?
A: Ki (KI (MUP)ATP, amino acid activation assay, ATP as variable substrate, average ± SD of three independent experiments): 480 ± 10 µM; Ki (KI (MUP)Ile, amino acid activation step, ATP/PPi exchange assay, Ile varied, ATP saturating, average ± SD of three independent experiments): 460 ± 10 µM; Ki (KI, single replicates, mupirocin inhibition towards Ile, GraphPad Prism output, Repl1-Repl3): 470 µM and 480 µM and 420 µM; vo (c (mupirocin) = 0.5 mM, c (Ile) 100.0 μM, Replica 1): 0.01849 mM/min; vo (c (mupirocin) = 0.5 mM, c (Ile) 100.0 μM, Replica 2): 0.01948 mM/min; vo (c (mupirocin) = 0.5 mM, c (Ile) 250.0 μM, Replica 1): 0.03623 mM/min; vo (c (mupirocin) = 0.5 mM, c (Ile) 250.0 μM, Replica 2): 0.03682 mM/min; vo (c (mupirocin) = 0.5 mM, c (Ile) 250.0 μM, Replica 3): 0.03653 mM/min; vo (c (mupirocin) = 0.5 mM, c (Ile) 500.0 μM, Replica 1): 0.05582 mM/min; vo (c (mupirocin) = 0.5 mM, c (Ile) 500.0 μM, Replica 2): 0.05871 mM/min; vo (c (mupirocin) = 0.5 mM, c (Ile) 500.0 μM, Replica 3): 0.05786 mM/min; vo (c (mupirocin) = 0.5 mM, c (Ile) 1000.0 μM, Replica 1): 0.07169 mM/min; vo (c (mupirocin) = 0.5 mM, c (Ile) 1000.0 μM, Replica 2): 0.07587 mM/min; vo (c (mupirocin) = 0.5 mM, c (Ile) 1000.0 μM, Replica 3): 0.07605 mM/min; vo (c (mupirocin) = 0.5 mM, c (Ile) 1500.0 μM, Replica 1): 0.08634 mM/min; vo (c (mupirocin) = 0.5 mM, c (Ile) 1500.0 μM, Replica 2): 0.08442 mM/min; vo (c (mupirocin) = 0.5 mM, c (Ile) 1500.0 μM, Replica 3): 0.08419 mM/min; vo (c (mupirocin) = 1.0 mM, c (Ile) 100.0 μM, Replica 1): 0.01236 mM/min; vo (c (mupirocin) = 1.0 mM, c (Ile) 100.0 μM, Replica 2): 0.01246 mM/min; vo (c (mupirocin) = 1.0 mM, c (Ile) 100.0 μM, Replica 3): 0.01228 mM/min; vo (c (mupirocin) = 1.0 mM, c (Ile) 250.0 μM, Replica 1): 0.0294 mM/min; vo (c (mupirocin) = 1.0 mM, c (Ile) 250.0 μM, Replica 2): 0.02992 mM/min; vo (c (mupirocin) = 1.0 mM, c (Ile) 250.0 μM, Replica 3): 0.02794 mM/min; vo (c (mupirocin) = 1.0 mM, c (Ile) 500.0 μM, Replica 1): 0.04465 mM/min; vo (c (mupirocin) = 1.0 mM, c (Ile) 500.0 μM, Replica 2): 0.04713 mM/min; vo (c (mupirocin) = 1.0 mM, c (Ile) 500.0 μM, Replica 3): 0.04492 mM/min; vo (c (mupirocin) = 1.0 mM, c (Ile) 1000.0 μM, Replica 1): 0.06444 mM/min; vo (c (mupirocin) = 1.0 mM, c (Ile) 1000.0 μM, Replica 2): 0.06152 mM/min; vo (c (mupirocin) = 1.0 mM, c (Ile) 1000.0 μM, Replica 3): 0.06395 mM/min; vo (c (mupirocin) = 1.0 mM, c (Ile) 1500.0 μM, Replica 1): 0.07511 mM/min; vo (c (mupirocin) = 1.0 mM, c (Ile) 1500.0 μM, Replica 2): 0.07278 mM/min; vo (c (mupirocin) = 1.0 mM, c (Ile) 1500.0 μM, Replica 3): 0.07621 mM/min; vo (c (mupirocin) = 2.5 mM, c (Ile) 100.0 μM, Replica 1): 0.00609 mM/min; vo (c (mupirocin) = 2.5 mM, c (Ile) 100.0 μM, Replica 2): 0.00589 mM/min; vo (c (mupirocin) = 2.5 mM, c (Ile) 100.0 μM, Replica 3): 0.00628 mM/min; vo (c (mupirocin) = 2.5 mM, c (Ile) 250.0 μM, Replica 1): 0.01433 mM/min; vo (c (mupirocin) = 2.5 mM, c (Ile) 250.0 μM, Replica 2): 0.01642 mM/min; vo (c (mupirocin) = 2.5 mM, c (Ile) 250.0 μM, Replica 3): 0.01353 mM/min; vo (c (mupirocin) = 2.5 mM, c (Ile) 500.0 μM, Replica 1): 0.02701 mM/min; vo (c (mupirocin) = 2.5 mM, c (Ile) 500.0 μM, Replica 2): 0.02762 mM/min; vo (c (mupirocin) = 2.5 mM, c (Ile) 500.0 μM, Replica 3): 0.02637 mM/min; vo (c (mupirocin) = 2.5 mM, c (Ile) 1000.0 μM, Replica 1): 0.042 mM/min; vo (c (mupirocin) = 2.5 mM, c (Ile) 1000.0 μM, Replica 2): 0.04503 mM/min; vo (c (mupirocin) = 2.5 mM, c (Ile) 1000.0 μM, Replica 3): 0.03982 mM/min; vo (c (mupirocin) = 2.5 mM, c (Ile) 1500.0 μM, Replica 1): 0.05219 mM/min; vo (c (mupirocin) = 2.5 mM, c (Ile) 1500.0 μM, Replica 2): 0.055 mM/min; vo (c (mupirocin) = 2.5 mM, c (Ile) 1500.0 μM, Replica 3): 0.05194 mM/min; vo (c (mupirocin) = 5.0 mM, c (Ile) 100.0 μM, Replica 1): 0.00403 mM/min; vo (c (mupirocin) = 5.0 mM, c (Ile) 100.0 μM, Replica 2): 0.00438 mM/min; vo (c (mupirocin) = 5.0 mM, c (Ile) 100.0 μM, Replica 3): 0.00348 mM/min; vo (c (mupirocin) = 5.0 mM, c (Ile) 250.0 μM, Replica 1): 0.0082 mM/min; vo (c (mupirocin) = 5.0 mM, c (Ile) 250.0 μM, Replica 2): 0.00786 mM/min
